Patent US6875764B1, “Urea and thiourea compounds useful for treatment of coccidiosis” (New Pharma Research Sweden AB, priority 1999, dated 2005)

Experiments:
[1] = system: Eimeria spp. (E. acervulina, E. maxima, E. necatrix, E. tenella and E. brunetti); experiment: Prophylactic anticoccidial evaluation in vivo in chickens of Habbared X breed, drug in feed; parameters: species or system chicken; conditions: for Average number of Eimeria spp. oocysts/g faeces, day after hatch 14: day 14 after hatch; for Average number of Eimeria spp. oocysts/g faeces, day after hatch 14 / Average number of Eimeria spp. oocysts/g faeces, day after hatch 15 / Average number of Eimeria spp. oocysts/g faeces, day after hatch 16 / Average number of Eimeria spp. oocysts/g faeces, day after hatch 17 / Average number of Eimeria spp. oocysts/g faeces, day after hatch 18 / Average number of Eimeria spp. oocysts/g faeces, day after hatch 19 / Average number of Eimeria spp. oocysts/g faeces, day after hatch 21: infected orally day 10; for Average number of Eimeria spp. oocysts/g faeces, day after hatch 14 / Average number of Eimeria spp. oocysts/g faeces, day after hatch 15 / Average number of Eimeria spp. oocysts/g faeces, day after hatch 16 / Average number of Eimeria spp. oocysts/g faeces, day after hatch 17 / Average number of Eimeria spp. oocysts/g faeces, day after hatch 18 / Average number of Eimeria spp. oocysts/g faeces, day after hatch 19 / Average number of Eimeria spp. oocysts/g faeces, day after hatch 21 / Mean body weight / Mean amount of feed consumed / Average number of Eimeria spp. oocysts/g faeces, Total: in feed B49 100 ppm, B42 150 ppm, B46 100 ppm, Coxistac 60 ppm; for Average number of Eimeria spp. oocysts/g faeces, day after hatch 15: day 15 after hatch; for Average number of Eimeria spp. oocysts/g faeces, day after hatch 16: day 16 after hatch; for Average number of Eimeria spp. oocysts/g faeces, day after hatch 17: day 17 after hatch; for Average number of Eimeria spp. oocysts/g faeces, day after hatch 18: day 18 after hatch; for Average number of Eimeria spp. oocysts/g faeces, day after hatch 19: day 19 after hatch; for Average number of Eimeria spp. oocysts/g faeces, day after hatch 21: day 21 after hatch; for Mean body weight: final weight; for Mean amount of feed consumed: mean total amount per bird; for Average number of Eimeria spp. oocysts/g faeces, Total: total of days 14 to 21 after hatch; for duration of the anticoccidial infection as compared to Coxistac: B49 100 ppm, B42 150 ppm vs Coxistac 60 ppm
Protocol: (§1) The antiparasitic activity of the present compounds as prophylactic agents was evaluated in vivo on 100 one day old (1 day after hatch) chickens of Habbared X breed. The chickens were divided into five groups of 20 birds each, and each group was located in a separate pen (1 m×1 m). The chickens were then fed with unmedicated food up to day 7 after hatch. Fresh water was supplied ad libitum.
(§2) On day 8 after hatch, the five groups were given feed containing the following compounds (1 ppm=1 mg drug/kg feed): • Group #1: B49 (100 ppm); • Group #2: B42 (150 ppm); • Group #3: B46 (100 ppm); • Group #4: Coxistac (60 ppm), a known anticoccidial agent (see U.S. Pat. No. 3,857,948); • Group #5: no drug content (control group).
(§3) The chickens were fed as above on day 8 and 9 after hatch. On day 10 after hatch, each chicken was infected orally by 6 000-7 000 oocysts containing a mixture of 5 mature sporulated strains, namely E. acervulina, E. maxima, E. necatrix, E. tenella and E. brunetti. The groups #1-4 received drug as above from day 10 to 21 after hatch.
(§4) From day 14 to 21 after hatch, fresh fecal droplets were collected and examined daily. The average number of oocysts/g faeces was then calculated in accordance with the co-called Mc-Master technique (Soulsby, 1984).

[2] = system: mixture of 8 mature sporulated strains (E. mitis, E. hagani, E. praecox, E. acervulina, E. maxima, E. necatrix, E. tenella and E. brunetti); experiment: Prophylactic anticoccidial evaluation in chickens of Arbor Aker breed; assay type: in vivo, chicken; conditions: 100 ppm in feed from day 3 after hatch, infected orally day 7
Protocol: as §1, §2, §3, §4
Moreover, the prophylactic anticoccidial effect of B42, B49 and B51 was also evaluated in chickens of Arbor Aker breed. These trials were conducted by using basically the same test protocol as that used for the chickens of Habbared X breed, albeit with the following modifications: • i) On day 3 after hatch, the tested groups of chickens receieved feed containing 100 ppm of B42, B49, B51 or Coxistac (60 ppm); • ii) On day 7 after hatch, the chickens were infected orally by oocysts containing a mixture of 8 mature sporulated strains, namely E. mitis, E. hagani, E. praecox, E. acervulina, E. maxima, E. necatrix, E. tenella and E. brunetti.

Row | Molecule | feed consumption lower in comparison with the Coxistac treated group ([1]; Habbared X chickens, B46 100 ppm vs Coxistac 60 ppm) [%] | body weight gain ([1]; Habbared X chickens, feed containing B46 100 ppm) | Average number of Eimeria spp. oocysts/g faeces, day after hatch 14 [1] [oocysts/g faeces] | Average number of Eimeria spp. oocysts/g faeces, day after hatch 15 [1] [oocysts/g faeces] | Average number of Eimeria spp. oocysts/g faeces, day after hatch 16 [1] [oocysts/g faeces] | Average number of Eimeria spp. oocysts/g faeces, day after hatch 17 [1] [oocysts/g faeces] | Average number of Eimeria spp. oocysts/g faeces, day after hatch 18 [1] [oocysts/g faeces] | Average number of Eimeria spp. oocysts/g faeces, day after hatch 19 [1] [oocysts/g faeces] | Average number of Eimeria spp. oocysts/g faeces, day after hatch 21 [1] [oocysts/g faeces] | Mean body weight [1] [g] | Mean amount of feed consumed [1] [g] | Average number of Eimeria spp. oocysts/g faeces, Total [1] [oocysts/g faeces] | duration of the anticoccidial infection as compared to Coxistac ([1]; Habbared X chickens) | prophylactic anticoccidial effect, results in words [2]
1 | 4-nitro-N-{[4-({4-nitro[(4-nitrophenyl)sulfonyl]anilino}-carbothioyl)-1-piperazinyl]carbothioyl}-N-(4-nitrophenyl)benzenesulfonamide [Compound B46] | ~67 | fair body weight gain | 0.0 | 3000 | 14000 | 99000 | 6000 | 0.0 | 0.0 | 54.5 | 39.3 | 122000 | – | –
2 | O=[N+]([O-])c1ccc(S(=O)(=O)N(C(=S)N(c2nc3ccc([N+](=O)[O-])cc3s2)S(=O)(=O)c2ccc([N+](=O)[O-])cc2)c2ccc(F)cc2)cc1 [Compound B42, N-(4-fluorophenyl)-4-nitro-N-({(6-nitro-1,3-benzothiazol-2-yl)[(4-nitrophenyl)sulfonyl]amino}carbothioyl)benzene-sulfonamide] | – | – | 0.0 | 0.0 | 3000 | 7000 | 0.0 | 0.0 | 0.0 | 61.0 | 93 | 10000 | shorter | essentially the same as those reported for the trials with the chickens of Habbared X breed
3 | O=C(O)c1cc(I)c(NC(=S)Nc2ccccc2)c(I)c1 [Compound B49, 4-[(anilinocarbothioyl)amino]-3,5-diiodobenzoic acid] | – | – | 0.0 | 3000 | 10000 | 20000 | 0.0 | 0.0 | 0.0 | 66.0 | 95 | 33000 | shorter | essentially the same as those reported for the trials with the chickens of Habbared X breed
4 | N#Cc1ccc(NC(=S)Nc2ccc([N+](=O)[O-])cc2)cc1 [Compound B51, N-(4-cyanophenyl)-N′-(4-nitrophenyl) thiourea] | – | – | – | – | – | – | – | – | – | – | – | – | – | comparable with those of B42
5 | CC[C@@H](C(=O)[C@@H](C)[C@@H](O)[C@H](C)[C@@H]1O[C@@H]([C@@H](CC)C(=O)O)CC[C@@H]1C)[C@H]1O[C@]2(C=C[C@@H](O)[C@]3(CC[C@@](C)([C@H]4CC[C@](O)(CC)[C@H](C)O4)O3)O2)[C@H](C)C[C@@H]1C [Coxistac, reference compound] | – | – | 0.0 | 3000 | 4000 | 7000 | 2000 | 2000 | 0.0 | 62.0 | 120 | 18000 | – | –
